Source: PubChem BioAssay AID1259407 (Chemical Carcinogenesis Research Information System (CCRIS), 2018)
Calls of active or inactive are those of the source. No rule for the calls is given here.

Test system: CCRIS mutagenicity, Ames/micronucleus/aberration tests
Assay: CCRIS mutagenicity studies
[1] = Test System: AMES SALMONELLA TYPHIMURIUM, Strain/Indicator: TA1535, Metabolic Activation: NONE, Method: PREINCUBATION
[2] = Test System: AMES SALMONELLA TYPHIMURIUM, Strain/Indicator: TA98, Metabolic Activation: NONE, Method: STANDARD PLATE
[3] = Test System: AMES SALMONELLA TYPHIMURIUM, Strain/Indicator: TA98, Metabolic Activation: RAT, LIVER, S-9, AROCLOR 1254, Method: STANDARD PLATE
[4] = Test System: AMES SALMONELLA TYPHIMURIUM, Strain/Indicator: TA100, Metabolic Activation: NONE, Method: STANDARD PLATE
[5] = Test System: AMES SALMONELLA TYPHIMURIUM, Strain/Indicator: TA100, Metabolic Activation: RAT, LIVER, S-9, AROCLOR 1254, Method: STANDARD PLATE
[6] = Test System: AMES SALMONELLA TYPHIMURIUM, Strain/Indicator: TA1535, Metabolic Activation: NONE, Method: STANDARD PLATE
[7] = Test System: AMES SALMONELLA TYPHIMURIUM, Strain/Indicator: TA1535, Metabolic Activation: RAT, LIVER, S-9, AROCLOR 1254, Method: STANDARD PLATE
[8] = Test System: AMES SALMONELLA TYPHIMURIUM, Strain/Indicator: TA1537, Metabolic Activation: NONE, Method: STANDARD PLATE
[9] = Test System: AMES SALMONELLA TYPHIMURIUM, Strain/Indicator: TA1537, Metabolic Activation: RAT, LIVER, S-9, AROCLOR 1254, Method: STANDARD PLATE

## Fc1ccc2ncccc2c1F
Test System: AMES SALMONELLA TYPHIMURIUM, Strain/Indicator: TA100, Metabolic Activation: RAT LIVER S-9, PHENOBARBITAL AND 5,6-BENZOFLAVONE, Method: PREINCUBATION
  mutagenic call: active; positive

## CCOCn1cc(F)c(=O)n(C(=O)c2cccc(C(=O)Oc3nc(OC(=O)c4ccccc4)ccc3C#N)c2)c1=O
Test System: AMES SALMONELLA TYPHIMURIUM, Strain/Indicator: TA98, Metabolic Activation: NONE, Method: PREINCUBATION
  mutagenic call: inactive; negative
Test System: AMES SALMONELLA TYPHIMURIUM, Strain/Indicator: TA98, Metabolic Activation: S-9, Method: PREINCUBATION
  mutagenic call: inactive; negative
Test System: AMES SALMONELLA TYPHIMURIUM, Strain/Indicator: TA100, Metabolic Activation: NONE, Method: PREINCUBATION
  mutagenic call: inactive; negative
Test System: AMES SALMONELLA TYPHIMURIUM, Strain/Indicator: TA100, Metabolic Activation: S-9, Method: PREINCUBATION
  mutagenic call: inactive; negative
[1]
  mutagenic call: inactive; negative
Test System: AMES SALMONELLA TYPHIMURIUM, Strain/Indicator: TA1535, Metabolic Activation: S-9, Method: PREINCUBATION
  mutagenic call: inactive; negative
Test System: AMES SALMONELLA TYPHIMURIUM, Strain/Indicator: TA1537, Metabolic Activation: NONE, Method: PREINCUBATION
  mutagenic call: inactive; negative
Test System: AMES SALMONELLA TYPHIMURIUM, Strain/Indicator: TA1537, Metabolic Activation: S-9, Method: PREINCUBATION
  mutagenic call: inactive; negative
Test System: E. COLI, Strain/Indicator: WP2 UVRA, Metabolic Activation: NONE, Method: PREINCUBATION
  mutagenic call: inactive; negative
Test System: E. COLI, Strain/Indicator: WP2 UVRA, Metabolic Activation: S-9, Method: PREINCUBATION
  mutagenic call: inactive; negative

## CNCCCN1c2ccccc2CCc2ccccc21
[2]
  mutagenic call: inactive; negative
[3]
  mutagenic call: inactive; negative
[4]
  mutagenic call: inactive; negative
[5]
  mutagenic call: inactive; negative
[6]
  mutagenic call: inactive; negative
[7]
  mutagenic call: inactive; negative
[8]
  mutagenic call: inactive; negative
[9]
  mutagenic call: inactive; negative

## CN(N=O)C(=O)N[C@@H]1O[C@H](CO)[C@H](O)[C@H](O)[C@H]1O
Test System: CHINESE HAMSTER V-79, Strain/Indicator: V-79/8-AZAGUANINE, Metabolic Activation: NONE, Method: STANDARD PLATE
  mutagenic call: active; positive

## CC(=O)CN(COC(C)=O)N=O
[1]
  mutagenic call: active; positive

## C[C@@]12CC[C@@H]3[C@@](CC[C@H]4[C@@]3(C)CCC[C@@]4(C)C(=O)O)(CC1=O)C2
Test System: AMES SALMONELLA TYPHIMURIUM, Strain/Indicator: TM677, Metabolic Activation: RAT, LIVER, S-9, AROCLOR 1254, Method: PREINCUBATION
  mutagenic call: inactive; negative

## [Cl][Pd-2]([Cl])([Cl])([Cl])([Cl])[Cl]
Test System: AMES SALMONELLA TYPHIMURIUM, Strain/Indicator: TA97A, Metabolic Activation: NONE, Method: STANDARD PLATE
  mutagenic call: inactive; negative
Test System: AMES SALMONELLA TYPHIMURIUM, Strain/Indicator: TA97A, Metabolic Activation: RAT, LIVER, S-9, PHENOBARBITAL AND 5,6-BENZOFLAVONE, Method: STANDARD PLATE
  mutagenic call: inactive; negative
Test System: AMES SALMONELLA TYPHIMURIUM, Strain/Indicator: TA97A, Metabolic Activation: RAT, LIVER, S-9, PHENOBARBITAL AND BETA-NAPHTHOFLAVONE, Method: STANDARD PLATE
  mutagenic call: inactive; negative
[2]
  mutagenic call: inactive; negative
Test System: AMES SALMONELLA TYPHIMURIUM, Strain/Indicator: TA98, Metabolic Activation: RAT, LIVER, S-9, PHENOBARBITAL AND 5,6-BENZOFLAVONE, Method: STANDARD PLATE
  mutagenic call: inactive; negative
Test System: AMES SALMONELLA TYPHIMURIUM, Strain/Indicator: TA98, Metabolic Activation: RAT, LIVER, S-9, PHENOBARBITAL AND BETA-NAPHTHOFLAVONE, Method: STANDARD PLATE
  mutagenic call: inactive; negative
[4]
  mutagenic call: inactive; negative
Test System: AMES SALMONELLA TYPHIMURIUM, Strain/Indicator: TA100, Metabolic Activation: RAT, LIVER, S-9, PHENOBARBITAL AND 5,6-BENZOFLAVONE, Method: STANDARD PLATE
  mutagenic call: inactive; negative
Test System: AMES SALMONELLA TYPHIMURIUM, Strain/Indicator: TA100, Metabolic Activation: RAT, LIVER, S-9, PHENOBARBITAL AND BETA-NAPHTHOFLAVONE, Method: STANDARD PLATE
  mutagenic call: inactive; negative
Test System: AMES SALMONELLA TYPHIMURIUM, Strain/Indicator: TA102, Metabolic Activation: NONE, Method: STANDARD PLATE
  mutagenic call: inactive; negative
Test System: AMES SALMONELLA TYPHIMURIUM, Strain/Indicator: TA102, Metabolic Activation: RAT, LIVER, S-9, PHENOBARBITAL AND 5,6-BENZOFLAVONE, Method: STANDARD PLATE
  mutagenic call: inactive; negative
Test System: AMES SALMONELLA TYPHIMURIUM, Strain/Indicator: TA102, Metabolic Activation: RAT, LIVER, S-9, PHENOBARBITAL AND BETA-NAPHTHOFLAVONE, Method: STANDARD PLATE
  mutagenic call: inactive; negative

## Cc1c2ccccc2c(CCl)c2ccccc12
[8]
  mutagenic call: active; positive

## c1cncc(-c2cccnc2)c1
Test System: AMES SALMONELLA TYPHIMURIUM, Strain/Indicator: TA97, Metabolic Activation: RAT, LIVER, S-9, PHENOBARBITAL, Method: STANDARD PLATE
  mutagenic call: inactive; negative
Test System: AMES SALMONELLA TYPHIMURIUM, Strain/Indicator: TA98, Metabolic Activation: RAT, LIVER, S-9, PHENOBARBITAL, Method: STANDARD PLATE
  mutagenic call: inactive; negative
Test System: AMES SALMONELLA TYPHIMURIUM, Strain/Indicator: TA100, Metabolic Activation: RAT, LIVER, S-9, PHENOBARBITAL, Method: STANDARD PLATE
  mutagenic call: active; positive
Test System: AMES SALMONELLA TYPHIMURIUM, Strain/Indicator: TA1535, Metabolic Activation: RAT, LIVER, S-9, PHENOBARBITAL, Method: STANDARD PLATE
  mutagenic call: inactive; negative
Test System: AMES SALMONELLA TYPHIMURIUM, Strain/Indicator: TA1537, Metabolic Activation: RAT, LIVER, S-9, PHENOBARBITAL, Method: STANDARD PLATE
  mutagenic call: inactive; negative
Test System: AMES SALMONELLA TYPHIMURIUM, Strain/Indicator: TA1538, Metabolic Activation: RAT, LIVER, S-9, PHENOBARBITAL, Method: STANDARD PLATE
  mutagenic call: active; positive

## Cc1cccc(NS(=O)(=O)c2cccc3cccnc23)c1
[2]
  mutagenic call: inactive; negative
[3]
  mutagenic call: inactive; negative
[4]
  mutagenic call: inactive; negative
[5]
  mutagenic call: inactive; negative
[6]
  mutagenic call: inactive; negative
[7]
  mutagenic call: inactive; negative
[8]
  mutagenic call: inactive; negative
[9]
  mutagenic call: inactive; negative

## Cc1ccc(NCCCl)cc1
[2]
  mutagenic call: active; positive
[4]
  mutagenic call: active; positive
Test System: AMES SALMONELLA TYPHIMURIUM, Strain/Indicator: TA1977, Metabolic Activation: NONE, Method: STANDARD PLATE
  mutagenic call: active; positive
Test System: AMES SALMONELLA TYPHIMURIUM, Strain/Indicator: TA1978, Metabolic Activation: NONE, Method: STANDARD PLATE
  mutagenic call: inactive; negative
